# What was measured:
# powdery mildew fungus [1] = test: Direct effect on fungal infectivity (Example 23); type: in vivo; details: tobacco plant, 5 days after infection with solution of fungus and test substance; control 100
# Protocol: Proceeding as in Example 21, the test was performed on the powdery mildew fungus, which was then incubated on the medium.
# [2] = system: Tobacco Mosaic Virus (TMV); test: Protection of tobacco against TMV infection by watering twice (Example 24); type: in vivo, Nicotiana tabacum cv. Xanthi; details: watered twice, 7 days after infection
# Protocol: Tobacco plants (Nicotiana tabacum) cv. […] 3,5-dichlorosalicylate of choline; 4. 3-chlorosalicylate of sodium, 5. 3-chlorosalicylate of potassium, 6. 3-chlorosalicylate of calcium, 7. 3-chlorosalicylate of magnesium at a concentration of 10 or 40 or 80 mg/L, at one-week intervals. The control was tobacco plants watered only with water. One week after the second treatment of the plants with the preparation, mechanical infection of the leaves with Tobacco Mosaic Virus (TMV) was carried out. This consisted of rubbing carborundum-sprinkled leaves several times with fingers soaked in a suspension of purified virus at a concentration of about 2 μg/ml. In order to evaluate the effectiveness of the tested substances in protection against biotic stresses, the TMV model and tobacco cv. Xanthi characterized by an interaction in the form of hypersensitivity phenomenon, i.e. the formation of easily quantifiable necrotic spots, were used.
# [3] = system: Tobacco Mosaic Virus (TMV); test: Protection of tobacco against TMV infection by spraying twice (Example 25); type: in vivo, Nicotiana tabacum cv. Xanthi; details: sprayed twice, 7 days after infection
# Source text: 5-chlorosalicylate of choline; 3. 3,5-dichlorosalicylate of choline; 4. 3-chlorosalicylate of sodium, 5. 3-chlorosalicylate of potassium, 6. 3-chlorosalicylate of calcium, 7.
# [4] = system: Pseudomonas syringae pv. Tomato (Pst); test: Protection of tomato against Pseudomonas syringae pv. Tomato by watering (Example 32); type: in vivo; details: 80 mg/L; watered twice; Pst 10^5; 2 weeks after infection
# Protocol: Tomato plants, at the stage of the first pair of developed true leaves, were watered twice with a solution of substance 1-6 at a concentration of 80 mg/L, at a weekly interval. The control was tomato plants watered only with water. One week after the second treatment, a suspension of Pst bacteria at a concentration of 10^5 was spot-injected into the leaves using an insulin syringe (without a needle). The suspension was prepared from a two-day culture of Pst on solid medium. Protection against biotic stress was evaluated by the proliferation of bacteria in the leaves at the insertion site and the formation of a necrotic spot, compared to the control.
# powdery mildew fungus [5] = type: in vivo, tomato; details: 80 mg/L, watered twice; 2 weeks after infection
# Protocol: Tomato plants, at the stage of the first pair of developed true leaves, were watered twice with a solution of substance 1-32 at a concentration of 80 mg/L, at a weekly interval. The control was tomato plants watered only with water. […] The suspension was prepared from culture on solid medium. Protection against biotic stress was evaluated by comparing the area of leaves affected by infection.
smiles,measurement,setting,value
C[N+](C)(C)CCO.O=C([O-])c1cccc(Cl)c1O [choline 3-chlorosalicylate],% of necrotic spots,powdery mildew fungus [1],100%
same,% reduction in necrotic spots compared to control,[2]; 10 mg/L,80%
same,% reduction in necrotic spots compared to control,[2]; 40 mg/L,100%
same,% reduction in necrotic spots compared to control,[2]; 80 mg/L,100%
same,% reduction in necrotic spots compared to control,[3]; 10 mg/L,80%
same,% reduction in necrotic spots compared to control,[3]; 40 mg/L,100%
same,% reduction in necrotic spots compared to control,[3]; 80 mg/L,85%
same,% reduction in necrotic spots compared to control,[4],92%
same,% reduction in necrotic spots compared to control,powdery mildew fungus [5],95%

# — patent US20260041093A1, “Ionic Derivatives Of Aromatic Carboxylic Acid For Use As Plant Stimulants, Method For Stimulating Plants And Use Of These Derivatives For Manufacturing Compositions For Stimulating Plants” (FUNDACJA UNIWERSYTETU IM. ADAMA MICKIEWICZA W POZNANIU, priority 2022, published 2026)
